In publication PMC11510591, “In Vitro Evaluation of Pharmacokinetic Properties of Selected Dual COX-2 and 5-LOX Inhibitors” (Pharmaceuticals, 2024):
Like-named read-outs stand apart in the source and are kept apart here.

What was measured:
[1] = BMC, Brij 35 mobile phase pH 5.5, 36.5 °C, C18 column
Method: BMC was performed using polyoxyethylene lauryl ether (Brij 35) as the most frequently used surfactant in this method. All other parameters (pH, temperature, and salinity) were set to achieve physiological conditions. The retention of compounds is mostly influenced by their lipophilicity and their interactions with both the modified stationary phase and the micelles in the mobile phase. Therefore, the elution behavior is determined by the combined effects of micelles, the stationary phase, and water. An important factor for this method is finding the optimal balance between organic solvent and aqueous phase.
BMC was performed on an Agilent 1200 Series (Agilent Technologies, Santa Clara, CA, USA) supplied with a binary pump, manual injector (20 µL), and DAD detector (190–950 nm) using a C18 column (ZORBAX Extend-C18 Analytical 4.6 × 150 mm; 5 µm, Agilent Technologies, Santa Clara, CA, USA). Mobile phase was a combination of aqueous phase (40 mmol/L solution of Brij 35 in 7 mmol/L Na2HPO4) and acetonitrile (70:30, v/v), and the mobile phase pH was adjusted to 5.5 using o-phosphoric acid. […] Retention factors (k) were calculated according to Equation (1). Column dead time (t0) was the retention time of DMSO at 220 nm, while tR was the retention time of a tested compound. k = (tR − t0)/t0(1)

[2] = PAMPA test (hexadecane membrane), passive gastrointestinal absorption; format: in vitro ADME; details: donor pH 5.5, acceptor pH 7.4, 5 h, room temperature; for Papp at 5 h, 0.05 mM: PAMPA, read-out: Pe (effective passive permeability coefficient)
Method: The PAMPA test uses a 96-well plate coated with an impregnated filter material, forming an artificial membrane that separates donor and acceptor compartments. Egg lecithin in dodecane is commonly used to simulate membrane lipids, while hexadecane is effective for mimicking gastrointestinal membranes. […] Therefore, hexadecane dissolved in hexane was chosen in this study.
The phosphate buffer solution was prepared by dissolving 0.5292 g of NaH2PO4 × H2O and 0.0234 g of Na2HPO4 in purified water (200 mL). The phosphate buffer was divided into two portions, and the pH was adjusted to pH 5.5 and pH 7.4 using o-phosphoric acid. The donor solutions were prepared by diluting the stock solutions (5 mM DMSO solutions) with the buffer pH 5.5 to obtain the final concentration of 0.05 mM (the DMSO concentration in the donor solutions was 1%), while the acceptor solution was prepared as a 1% DMSO solution in the buffer pH 7.4. The use of DMSO as a cosolvent in PAMPA is necessary in cases of low-soluble compounds. It is usually used in concentrations up to 5% [25, 55, 56, 57].
The PAMPA test was performed according to the literature procedure using a 96-well microtiter polycarbonate filter plate (Merck Millipore, Carrigtwohill, Ireland) that was impregnated with 15 µL of a hexadecane/hexane (5:95, v/v) solution [52]. Donor solutions (300 µL per well) were transferred into each well of the donor plate. Acceptor solution was transferred into each well (300 µL per well) of the acceptor plate (MSSACCEPTOR, Millipore, Burlington, MA, USA) and covered by the donor plate to create a PAMPA sandwich. The system was incubated at room temperature for 5 h at a vibratory mixer. After incubation, the PAMPA sandwich was dissociated, and concentrations of all tested compounds in each well, as well as in the starting solutions, were determined using the HPLC method (Section 3.3.1).
The concentrations of tested compounds in the starting solutions, as well as in the donor and acceptor sections after incubation, were determined by the HPLC method on the Dionex Ultimate 3000 (Thermo Fisher Scientific, Waltham, MA, USA) equipped with a quaternary pump, autosampler, and DAD detector using a ZORBAX Eclipse XDB-C18 4.6 × 150 mm, 5 µm column (Agilent Technologies, Santa Clara, CA, USA).
R represents the retention, which is defined as the fraction of the tested compound retained in the PAMPA membrane (filters and plate materials), CD(t) is the concentration of a tested compound in a donor compartment after incubation time t, CA(t) is the concentration of a tested compound in an acceptor compartment after incubation time t, while CD(0) represents the concentration of a tested compound in a donor compartment at the beginning of the incubation (starting solution).

[3] = test system: CD-1 mouse liver microsomes; details: pH 7.4; for Peak Area, t0: 0 min; for Peak Area, t: 30 min
Method: Microsomal stability (and thus susceptibility to metabolism) was tested using microsomes derived from CD-1 mouse liver. According to the applied protocol, both phases of metabolism were activated by the addition of cofactors NADPH and UDP-GlcUA. […] Stock solutions of all tested compounds (5 mM DMSO solutions) were diluted with 0.1 M potassium phosphate buffer pH 7.4 to obtain 0.1 mM solutions, which were further incubated according to the protocol. In order to activate both the 1st and 2nd phases of metabolism, NADPH and UDP-GlcUA were used as cofactors. Tested compounds were incubated at 37 °C for 30 min, and the incubation was quenched immediately after the addition of cofactors (t0) and after the defined incubation time (t) by mixing 100 µL of corresponding incubation mixtures with 200 µL of cold acetonitrile. All compounds were tested in duplicates, and their concentrations were determined using the HPLC-MS/MS method (Section 3.7.1).
The HPLC-MS/MS analysis was performed on the UHPLC chromatograph ACELLA (Thermo Fisher Scientific Inc., Madison, WI, USA), coupled to a triple quadrupole mass spectrometer TSQ Quantum Access MAX (Thermo Fisher Scientific Inc., Madison, WI, USA) with a heated electrospray ionization (HESI) interface. The column used was Zorbax Extend C18 (150 mm × 4.6 mm, 5 µm; Agilent Technologies), which was thermostated at 25 °C. The mobile phase consisted of acetonitrile and 0.1% formic acid (60:40, v/v), with a flow rate of 500 µL/min. The injection volume was 10 µL.

[4] = molecular target: T1, human serum albumin (HSA) (Homo sapiens, UniProt P02768); format: binding; details: CHIRALPAK HSA column, ammonium acetate buffer pH 7.0/acetonitrile 85:15, 25 °C
T1 construct: purchased Sigma-Aldrich
Method: Recently, interactions of many newly synthesized structurally diverse compounds with HSA were successfully studied using this technique. The degree of binding of the tested compounds to HSA was evaluated based on their retention behavior on the stationary phase modified with HSA. The logarithmic values of retention factors (logk) were used to evaluate indirectly and compare the drug–HSA interaction.
HPAC analysis was performed on an Agilent 1200 Series chromatograph (Agilent Technologies, Santa Clara, CA, USA). […] The mobile phase consisted of ammonium acetate buffer (pH 7.0; 0.01 M) and acetonitrile (85:15, v/v). The flow rate was 0.6 mL/min, the temperature was set to 25 °C, and the detection of tested compounds was carried out at 283 nm. Tested compounds were dissolved in DMSO (at a concentration of 1 mg/mL), further diluted with the mobile phase to a final concentration of 0.05 mg/mL, and analyzed in triplicate. The HPAC conditions were selected not only with the aim of achieving satisfactory retention characteristics of all synthesized compounds but also taking into account recommendations of a column manufacturer. Retention factors were calculated using Equation (1), where t0 (column dead time) was the retention time of DMSO at 220 nm.

[5] = molecular target: T1, human serum albumin (HSA); experiment: Differential pulse voltammetry (DPV), interaction with HSA; format: binding; details: compound 0.05 mmol/L, PBS pH 7.4, HSA 0.05–10 μmol/L
Method: The electrochemical oxidation of the tested compounds at a concentration of 0.05 mmol/L in PBS buffer pH 7.4 was investigated by differential pulse voltammetry (DPV). […] For all tested compounds, a preliminary study of the interaction with HSA was performed at a concentration of 0.05 mmol/L and different HSA concentrations (0.05–10 μmol/L) using DPV. […] It has been reported that the shift in the potential of an electroactive ligand is a suitable criterion to determine the mode of the macromolecule–ligand interaction. In this context, a positive shift in potential is an indication of hydrophobic interaction of investigated compounds with HSA [34]. The decrease in peak current could be due to the formation of a non-electroactive supramolecular compound by the drug–protein interaction, which reduces the concentration of free drug.
The voltammetric measurements were carried out with the µAutolab analyzer (EcoChemie, Utrecht, The Netherlands). A three-electrode system with a GCE working electrode, an Ag/AgCl reference electrode, and a Pt-auxiliary electrode was used. Before each experiment, the GCE was manually polished with an aqueous slurry of Al2O3 powder (particle size of 0.05 μm) on a smooth polishing pad, sonicated in deionized water, and then treated in absolute ethanol. Phosphate buffer saline (PBS) pH 7.4 was used as the supporting electrolyte. The experiments were carried out with deaerated PBS buffer. A stock solution of HSA in PBS at a concentration of 0.1 mmol/L was used. […] The interaction between tested compounds and HSA was examined in PBS solution, using solutions of tested compounds in a concentration of 0.05 mmol/L and HSA solution with a concentration in the range of 0.05–10 μmol/L.
The percentage of free compound (Equation (4)) was calculated from the ratio of the current intensity (IINT) for a given compound concentration (0.05 mmol/L) in the presence of albumin to the signal obtained at the same compound concentration only in the presence of the supporting electrolyte (PBS buffer) (IC).

T1 sequence (P02768 25-609): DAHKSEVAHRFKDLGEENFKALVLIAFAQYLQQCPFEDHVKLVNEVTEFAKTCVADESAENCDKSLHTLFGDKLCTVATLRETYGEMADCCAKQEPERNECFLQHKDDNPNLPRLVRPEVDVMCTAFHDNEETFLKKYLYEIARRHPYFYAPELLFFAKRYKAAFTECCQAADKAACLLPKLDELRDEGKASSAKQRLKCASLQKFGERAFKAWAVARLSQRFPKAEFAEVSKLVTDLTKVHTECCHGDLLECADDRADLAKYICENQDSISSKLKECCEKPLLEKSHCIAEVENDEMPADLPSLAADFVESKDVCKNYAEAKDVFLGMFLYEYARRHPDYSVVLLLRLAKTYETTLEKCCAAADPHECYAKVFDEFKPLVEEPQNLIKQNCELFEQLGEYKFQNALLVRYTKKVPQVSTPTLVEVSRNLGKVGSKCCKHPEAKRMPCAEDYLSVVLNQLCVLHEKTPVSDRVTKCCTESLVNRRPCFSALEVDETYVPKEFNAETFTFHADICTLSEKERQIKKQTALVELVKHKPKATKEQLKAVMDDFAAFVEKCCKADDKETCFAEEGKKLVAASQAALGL

Compound	Retention factors (k) [1]	Papp at 5 h, 0.05 mM [2] [×10⁻⁶ cm/s]	–logPe [2]	–logPe ([2]; listed as indomethacin)	Peak Area, t0 [3]	Peak Area, t [3]	Retention factors (k) ([1]; listed as diclofenac)	–logPe ([2]; listed as diclofenac)	–logPe ([2]; listed as ibuprofen)	Retention Factors (logk) [4]	Retention Factors (logk) ([4]; listed as flurbiprofen)	–logPe ([2]; listed as flurbiprofen)	% Bound Drug [5]	ΔE, DPV peak potential shift after interaction with HSA [5]
COc1ccc2c(c1)c(CC(=O)O)c(C)n2C(=O)c1ccc(Cl)cc1 [Indomethacin, indomethacin, reference compound]	10.20 ± 0.03	386	3.41 ± 0.05	≤ 3.46	241.9 ± 2.5 ×10^3	206.9 ± 9.0 ×10^3								
O=C(O)Cc1ccccc1Nc1c(Cl)cccc1Cl [Diclofenac, diclofenac]	8.25 ± 0.00	> 400	<3.40		126.2 ± 2.8 ×10^3	99.7 ± 5.3 ×10^3	8.25	≤ 3.46						
CC(C)Cc1ccc(C(C)C(=O)O)cc1 (stereo not shown) [Ibuprofen, ibuprofen]	13.36 ± 0.00	> 400	<3.40						≤ 3.46					
CC(C(=O)O)c1ccc(-c2ccccc2)c(F)c1 (stereo not shown) [Flurbiprofen, flurbiprofen]	7.14 ± 0.02	> 400	<3.40							11.03 ± 0.02	11.03	≤ 3.46	Electrochemically inactive	Electrochemically inactive
